Several values for one entry are separate records, joined by “and”; a condition that tells them apart may be missing. Identical values can stand only once.
Experiment: molar heat capacity at constant pressure
Conditions: 101.33 kPa, Crystal, Small sample (50 mg) DSC

[Ca+2].[O]=[Mo](=[O])([O-])[O-] [calcium molybdate(VI)]
Conditions	molar heat capacity at constant pressure
596.4 K	141.2 J/K/mol
597 K	142.1 J/K/mol
597.4 K	141.3 J/K/mol
598 K	142.2 J/K/mol
598.4 K	141.3 J/K/mol
599 K	142.2 J/K/mol
599.4 K	141.3 J/K/mol
600 K	141.5 J/K/mol and 142.3 J/K/mol
600.4 K	141.3 J/K/mol
601 K	142.4 J/K/mol
601.4 K	141.4 J/K/mol
602 K	142.4 J/K/mol
602.4 K	141.4 J/K/mol
603 K	142.5 J/K/mol
603.4 K	141.4 J/K/mol
604.1 K	142.4 J/K/mol
604.4 K	141.4 J/K/mol
605.1 K	142.4 J/K/mol
605.4 K	141.4 J/K/mol
606.1 K	142.4 J/K/mol
606.4 K	141.5 J/K/mol
607.1 K	142.5 J/K/mol
607.4 K	141.5 J/K/mol
608.1 K	142.5 J/K/mol
608.4 K	141.5 J/K/mol
609.1 K	142.6 J/K/mol
609.4 K	141.5 J/K/mol
610.1 K	142.7 J/K/mol
610.4 K	141.5 J/K/mol
611.1 K	142.7 J/K/mol
611.4 K	141.5 J/K/mol
612.1 K	142.7 J/K/mol
612.4 K	141.5 J/K/mol
613.1 K	142.8 J/K/mol
613.4 K	141.6 J/K/mol
614.1 K	142.8 J/K/mol
614.4 K	141.6 J/K/mol
615.1 K	142.8 J/K/mol
615.4 K	141.6 J/K/mol
616.1 K	142.9 J/K/mol
616.4 K	141.6 J/K/mol
617.1 K	142.9 J/K/mol
617.4 K	141.6 J/K/mol
618.1 K	142.9 J/K/mol
618.4 K	141.6 J/K/mol
619.1 K	143 J/K/mol
619.4 K	141.5 J/K/mol
620 K	142.4 J/K/mol
620.1 K	143.1 J/K/mol
620.4 K	141.5 J/K/mol
621.1 K	143.2 J/K/mol
621.4 K	141.4 J/K/mol
622.1 K	143.2 J/K/mol
622.4 K	141.5 J/K/mol
623.1 K	143.3 J/K/mol
623.4 K	141.5 J/K/mol
624.1 K	143.3 J/K/mol
624.4 K	141.6 J/K/mol
624.5 K	143.3 J/K/mol
625.4 K	141.6 J/K/mol
626.4 K	141.7 J/K/mol
627.4 K	141.7 J/K/mol
628.4 K	141.7 J/K/mol
629.4 K	141.8 J/K/mol
630.4 K	141.8 J/K/mol
631.4 K	141.9 J/K/mol
632.4 K	142.1 J/K/mol
633.4 K	142.2 J/K/mol
634.4 K	142.3 J/K/mol
635.4 K	142.3 J/K/mol
636.4 K	142.4 J/K/mol
637.4 K	142.4 J/K/mol
638.4 K	142.4 J/K/mol
639.4 K	142.5 J/K/mol
640 K	143.2 J/K/mol
640.4 K	142.6 J/K/mol
641.4 K	142.7 J/K/mol
642.4 K	142.8 J/K/mol
643.4 K	142.8 J/K/mol
644.4 K	142.9 J/K/mol
645.4 K	142.9 J/K/mol
646.4 K	143 J/K/mol
647.4 K	143 J/K/mol
648.4 K	143 J/K/mol
649.4 K	143.1 J/K/mol
650.4 K	143.2 J/K/mol
651.4 K	143.2 J/K/mol
652.4 K	143.3 J/K/mol
653.4 K	143.4 J/K/mol
654.4 K	143.4 J/K/mol
655.4 K	143.5 J/K/mol
656.4 K	143.6 J/K/mol
657.4 K	143.6 J/K/mol
658.4 K	143.7 J/K/mol
659.4 K	143.8 J/K/mol
660 K	144 J/K/mol
660.4 K	143.8 J/K/mol
661.4 K	143.9 J/K/mol
662.4 K	144 J/K/mol
663.4 K	144 J/K/mol
664.4 K	144.1 J/K/mol
665.4 K	144.2 J/K/mol
666.4 K	144.2 J/K/mol
667.4 K	144.3 J/K/mol
668.4 K	144.3 J/K/mol
669.4 K	144.4 J/K/mol
670.4 K	144.4 J/K/mol
671.4 K	144.4 J/K/mol
672.4 K	144.5 J/K/mol
673.4 K	144.5 J/K/mol
674.4 K	144.5 J/K/mol
675.4 K	144.5 J/K/mol
676.4 K	144.6 J/K/mol
677.4 K	144.6 J/K/mol
678.4 K	144.7 J/K/mol
679.4 K	144.8 J/K/mol
680 K	144.7 J/K/mol
680.4 K	144.9 J/K/mol
681.4 K	144.9 J/K/mol
682.4 K	145 J/K/mol
683.4 K	145.1 J/K/mol
684.4 K	145.2 J/K/mol
685.4 K	145.3 J/K/mol
686.4 K	145.3 J/K/mol
687.4 K	145.4 J/K/mol
688.4 K	145.4 J/K/mol
689.4 K	145.5 J/K/mol
690.4 K	145.5 J/K/mol
691.4 K	145.6 J/K/mol
692.4 K	145.6 J/K/mol
693.4 K	145.7 J/K/mol
694.4 K	145.8 J/K/mol
695.4 K	145.8 J/K/mol
696.4 K	145.9 J/K/mol
697.4 K	145.9 J/K/mol
698.4 K	145.9 J/K/mol
699.4 K	145.9 J/K/mol
700 K	145.4 J/K/mol
700.4 K	145.9 J/K/mol
701.4 K	145.9 J/K/mol
702.4 K	145.9 J/K/mol
703.4 K	145.9 J/K/mol
704.4 K	145.9 J/K/mol
705.4 K	145.9 J/K/mol
706.4 K	145.8 J/K/mol
707.4 K	145.8 J/K/mol
708.4 K	145.8 J/K/mol
709.4 K	145.9 J/K/mol
710.4 K	145.9 J/K/mol
711.4 K	145.9 J/K/mol
712.4 K	146 J/K/mol
713.4 K	146 J/K/mol
714.4 K	146 J/K/mol
715.4 K	146 J/K/mol
716.4 K	146.1 J/K/mol
717.4 K	146.2 J/K/mol
718.4 K	146.2 J/K/mol
719.4 K	146.3 J/K/mol
720 K	146.1 J/K/mol
720.4 K	146.3 J/K/mol
721.4 K	146.3 J/K/mol
722.4 K	146.3 J/K/mol
723.4 K	146.4 J/K/mol
724.4 K	146.4 J/K/mol
725.4 K	146.5 J/K/mol
726.4 K	146.5 J/K/mol
727.4 K	146.6 J/K/mol
728.4 K	146.6 J/K/mol
729.4 K	146.6 J/K/mol
730.4 K	146.7 J/K/mol
731.4 K	146.7 J/K/mol
732.4 K	146.7 J/K/mol
733.4 K	146.7 J/K/mol
734.4 K	146.7 J/K/mol
735.4 K	146.7 J/K/mol
736.4 K	146.7 J/K/mol
737.4 K	146.7 J/K/mol
738.4 K	146.8 J/K/mol
739.4 K	146.9 J/K/mol
740 K	146.8 J/K/mol
740.4 K	147 J/K/mol
741.4 K	147 J/K/mol
742.4 K	147.1 J/K/mol
743.4 K	147.1 J/K/mol
744.4 K	147.1 J/K/mol
745.4 K	147.2 J/K/mol
746.4 K	147.2 J/K/mol
747.4 K	147.3 J/K/mol
748.4 K	147.3 J/K/mol
749.4 K	147.3 J/K/mol
750.4 K	147.3 J/K/mol
751.4 K	147.4 J/K/mol
752.4 K	147.4 J/K/mol
753.4 K	147.4 J/K/mol
754.4 K	147.5 J/K/mol
755.4 K	147.5 J/K/mol
756.4 K	147.6 J/K/mol
757.4 K	147.7 J/K/mol
758.4 K	147.7 J/K/mol
759.4 K	147.8 J/K/mol
760 K	147.4 J/K/mol
760.4 K	147.8 J/K/mol
761.4 K	147.8 J/K/mol
762.4 K	147.7 J/K/mol
763.4 K	147.7 J/K/mol
764.4 K	147.7 J/K/mol
765.4 K	147.8 J/K/mol
766 K	147.5 J/K/mol
766.4 K	147.9 J/K/mol

Source: the NIST ThermoML archive (doi:10.1016/j.tca.2018.01.023)
